Test results taken from patent publication US20130137102A1, “Methods and kits for modulating tumor invasiveness and metastatic potential” (TUFTS MEDICAL CENTER, INC., priority 2010, published 2013).
Where a SMILES comes first, the peptide text is derived from it. [ ]: non-standard residue; d: D form. Nle = CCCC[C@H](N)C(=O)O

Assays:
Tiam1 = assay: In vitro Tiam1 cleavage assay; type: biochemical, human; settings: immunoblot
Procedure: HEK293T cells were transiently transfected with full-length Tiam1 cDNA as previously described (Buchsbaum et al., 2002). Forty-eight hours after transfection, cells were washed once with PBS and lysed in SP buffer as described above. Lysates were cleared of unbroken cells and debris by centrifugation at 10,000×g for 10 minutes. Aliquots of cleared lysates were reserved for immunoblots; the remainder were incubated with protein A-Sepharose beads (Pharmacia) and anti-Tiam1 antibody (diluted according to the manufacturer's instructions) or equal amounts of polyclonal rabbit IgG (Santa Cruz) for 2 h at 4° C. with constant agitation. Immunoprecipitates were washed twice with ice-cold SP buffer and once with Reaction Buffer (20 mM Tris-HCl, pH 7.5, 10 mM DTT, 6 mM CaCl2) in the presence of protease inhibitors (1 mM PMSF and 1.7 μg/ml aprotinin) prior to the cleavage reaction.
Pre-senescent cells were maintained in culture as described above. Senescence was induced with 800 uM H2O2 as described above, and confirmed by SA-β gal staining. Pre-senescent and senescent RMFs were washed with cold PBS, pelleted, and resuspended in extraction buffer (10 mM HEPES pH 7.0, 2 mM MgCl2, 50 mM NaCl, 1 mM DTT) containing inhibitors (17 μg/ml aprotinin, 10 μg/ml leupepsin, 100 μM NaV, 3.3 mM PMSF). Cells were lysed by freeze-thaw cycles in ethanol-liquid nitrogen/37° C. water bath. Extracts were centrifuged at 10,000 g for 15 min at 4° C., and resulting supernatants were used as the cytosolic fraction. Protein concentration was determined by BCA protein assay (Bio-Rad).
Immunoprecipitated proteins were incubated with extracted lysates from pre-senescent or senescent cells in Reaction Buffer for 2 hours at 37° C. with constant agitation. […] Samples were resolved by SDS-PAGE and immunoblotting as described.

[1] = system: T-cell lymphoma invasion and metastasis-inducing protein 1 (Tiam1)
RMF cells = assay: Senescence induction and SA-β-Gal staining; type: cell-based, human; settings: repeated 3-5 days later, seven days after induction
Procedure: After treatment, cells were rinsed twice with phosphate-buffered saline (PBS) and left to recover in culture medium. […] For each treatment, senescence induction was repeated 3-5 days later to prevent recovery and cell cycle re-entry. Cells were sub-cultured for at least 7 days and senescence induction was confirmed by SA-β-gal staining.
SA-β-Gal staining was conducted as described previously [Dimri, G P, et al., 1995, Proc Natl Acad Sci USA 92:9363-7]. Briefly, cells were washed twice in PBS and fixed 5 minutes in 2% formaldehyde/0.2% glutaraldehyde, washed again, and incubated at 37° C. overnight with fresh senescence-associated β-Gal (SA-β-Gal) stain solution: 1 mg 5-bromo-4-chloro-3-indolyl-β-D-galactoside (X-Gal) per ml (stock=20 mg in dimethylformamide per ml)/40 mM citric acid/sodium phosphate, pH 6.0/5 mM potassium ferrocyanide/5 mM potassium ferricyanide/150 mM NaCl/2 mM MgCl2. Cells with positive staining were observed and counted under a light microscope (Nikon, Eclipse TS100).

HMECs = assay: Spheroid co-culture in Matrigel with senescent RMFs; type: cell-based, human; settings: RMFs exposed to the agent before co-culture; preliminary examples
Procedure: (§1) As described previously [Xu K, et al., 2010, Oncogene 29:6533-42], Matrigel (BD Biosciences) was diluted in 1:1 ratio with ice-cold HMEC medium, and 50 μl of the mixture was placed mid-well in a 24-well plate. After incubating for 5 min in 37° C., an additional 250 μl of Matrigel:medium mixture was added into the well and incubated for another 30 min. A 1:1 mixture of HMEC and RMF cells (0.5×10^5 cells each) in 0.5 ml of HMEC medium was gently dropped onto the top of the solidified gel. Cells were cultured for two weeks and medium was changed every two or three days. Spheroid formation and projection growth were monitored daily under light microscopy. Images were obtained on a Diaphot Software Version 4.1 (Diagnostic Instruments Inc).
as §1, with “and 50 ul of the” for “and 50 μl of the”, “another 30 min A 1:1” for “another 30 min. A 1:1”, “light microscopy. […]” for “light microscopy. Images were obtained on a Diaphot Software Version 4.1 (Diagnostic Instruments Inc).”

T-cell lymphoma invasion and metastasis-inducing protein 1 (Tiam1), sequence (chain, as listed by the source): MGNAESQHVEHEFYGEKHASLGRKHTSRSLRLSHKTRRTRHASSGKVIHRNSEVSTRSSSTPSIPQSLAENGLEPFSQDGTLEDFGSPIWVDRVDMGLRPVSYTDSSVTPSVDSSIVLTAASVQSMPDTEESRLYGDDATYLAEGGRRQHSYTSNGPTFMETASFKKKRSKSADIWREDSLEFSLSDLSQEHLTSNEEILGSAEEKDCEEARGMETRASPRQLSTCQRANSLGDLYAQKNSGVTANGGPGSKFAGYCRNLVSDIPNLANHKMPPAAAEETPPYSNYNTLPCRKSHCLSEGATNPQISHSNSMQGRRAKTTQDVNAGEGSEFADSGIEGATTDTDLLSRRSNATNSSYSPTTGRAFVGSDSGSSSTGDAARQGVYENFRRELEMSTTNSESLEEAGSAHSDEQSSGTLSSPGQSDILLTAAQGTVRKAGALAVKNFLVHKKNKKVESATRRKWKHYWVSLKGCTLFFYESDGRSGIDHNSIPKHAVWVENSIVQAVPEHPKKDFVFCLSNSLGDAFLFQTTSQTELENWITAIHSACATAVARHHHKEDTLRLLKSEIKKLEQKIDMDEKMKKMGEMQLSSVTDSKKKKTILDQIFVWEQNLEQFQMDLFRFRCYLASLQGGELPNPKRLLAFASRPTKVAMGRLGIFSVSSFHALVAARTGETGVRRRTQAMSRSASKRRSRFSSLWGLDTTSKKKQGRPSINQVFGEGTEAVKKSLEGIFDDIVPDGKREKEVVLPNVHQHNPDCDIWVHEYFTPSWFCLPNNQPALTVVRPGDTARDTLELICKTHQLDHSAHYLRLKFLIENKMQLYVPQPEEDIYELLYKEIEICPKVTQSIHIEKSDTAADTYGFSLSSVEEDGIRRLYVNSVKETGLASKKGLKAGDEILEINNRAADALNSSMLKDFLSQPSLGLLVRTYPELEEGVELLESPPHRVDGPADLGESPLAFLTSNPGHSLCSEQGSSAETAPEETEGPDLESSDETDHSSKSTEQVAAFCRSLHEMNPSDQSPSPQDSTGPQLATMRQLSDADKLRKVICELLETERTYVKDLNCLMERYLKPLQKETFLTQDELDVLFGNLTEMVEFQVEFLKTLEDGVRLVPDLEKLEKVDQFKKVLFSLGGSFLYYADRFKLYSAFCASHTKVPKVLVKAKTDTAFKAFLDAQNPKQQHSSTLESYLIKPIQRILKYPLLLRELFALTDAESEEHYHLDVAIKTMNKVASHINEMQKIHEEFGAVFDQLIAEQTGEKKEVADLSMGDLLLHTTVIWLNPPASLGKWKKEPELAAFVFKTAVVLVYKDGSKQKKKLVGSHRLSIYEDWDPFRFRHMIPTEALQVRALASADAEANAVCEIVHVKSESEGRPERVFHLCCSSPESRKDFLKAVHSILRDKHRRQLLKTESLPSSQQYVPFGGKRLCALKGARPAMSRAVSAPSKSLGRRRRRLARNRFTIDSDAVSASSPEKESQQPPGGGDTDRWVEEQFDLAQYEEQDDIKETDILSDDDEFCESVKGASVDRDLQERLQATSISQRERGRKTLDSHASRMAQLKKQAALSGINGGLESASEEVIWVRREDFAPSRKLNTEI

With `CC(C)C[C@H](NC(=O)[C@H](Cc1ccccc1)NC(=O)c1cnccn1)B(O)O` [bortezomib] the “degradation of immobilized Tiam1 by senescent lysates” value (Tiam1; lysates pre-incubated with 5 nM bortezomib at 37° C. for 24 hours) was “did not prevent degradation of immobilized Tiam1”.
For calpain proteases, the “degradation of immunoprecipitated Tiam1 (in vitro Tiam1 cleavage assay, immunoblot)” value [1] was “Pre-incubation of cell lysates with either the calpain inhibitor ALLN or the calcium-chelator EDTA significantly inhibited degradation of the immobilized Tiam1 induced by senescent lysates”.
With `OO` [H2O2, hydrogen peroxide] the “induction of senescence (morphology, SA β-gal staining)” value (RMF cells; 800 μmol/L H2O2 for 2 hours) was “had taken on a morphologic appearance characteristic of senescence” and the “HMEC invasiveness into matrix on co-culture with RMFs rendered senescent by the agent” value (HMECs) was “increased invasiveness into the surrounding matrix”.
For `O=C(O)CN(CCN(CC(=O)O)CC(=O)O)CC(=O)O` [EDTA], the “degradation of immobilized Tiam1 induced by senescent lysates” value (Tiam1; lysates pre-incubated on ice 30 minutes with 1 mM EDTA) was “significantly inhibited degradation of the immobilized Tiam1”.
With bleomycin the “induction of senescence (morphology, SA β-gal staining)” value (RMF cells; 50 μg/ml bleomycin for 24 hours) was “had taken on a morphologic appearance characteristic of senescence” and the “HMEC invasiveness into matrix on co-culture with RMFs rendered senescent by the agent” value (HMECs) was “increased invasiveness into the surrounding matrix”.
With `CCCC[C@@H](C=O)NC(=O)[C@H](CC(C)C)NC(=O)[C@H](CC(C)C)NC(C)=O` [ALLN] (Ac-Leu-Leu-[Nle]-aldehyde) the “degradation of immobilized Tiam1 induced by senescent lysates” value (Tiam1; lysates pre-incubated on ice 30 minutes with 50 μM ALLN) was “significantly inhibited degradation of the immobilized Tiam1”.
